Here are results for 7 molecules from article PMC11013252, “Exploration of the Antibacterial and Anti-Inflammatory Activity of a Novel Antimicrobial Peptide Brevinin-1BW” (Molecules, 2024).

The subject of one experiment is MRSA/MDR S. aureus. The following applies: ref [44],[45],[46],[47]; cited from earlier work. An excerpt:
Table 5 Comparison of MICs of Brevinin-1BW and related AMPs congeners against specific microorganisms. | column: MIC (µM) / MRSA/MDR S. aureus

The next experiment relates to S. aureus. The following applies: ref [44],[45],[46],[47]; cited from earlier work. An excerpt:
Table 5 Comparison of MICs of Brevinin-1BW and related AMPs congeners against specific microorganisms. | column: MIC (µM) / S. aureus

The subject of the next experiment is E. faecalis. The following applies: ref [44],[45],[46],[47]; cited from earlier work. An excerpt: Table 5 Comparison of MICs of Brevinin-1BW and related AMPs congeners against specific microorganisms. | column: MIC (µM) / E. faecalis
In another experiment the test system is E. coli (ATCC25922). Put plainly: microbe, parasite or virus in culture. Type of experiment: cell-based. The note with it: Escherichia coli; E. coli (ATCC25922); CLSI two-fold dilution, MH medium, 1 × 10^6 CFU/mL, 37 °C, 18 h, OD600; 9 replicates of 3 independent experiments; read-out: MIC. On the procedure:
(§1) The minimum inhibitory concentration (MIC) of the Brevinin-1BW was measured in 96-well microtiter plates according to the Clinical and Laboratory Standards Institute (CLSI). The activated strains were treated with Mueller Hinton Agar (MHA) solid medium. Single colonies were picked and expanded to the logarithmic growth phase, and the solution was diluted to 2 × 10^6 CFU/mL using the McFarland turbidity standard. The MIC was determined with the two-fold dilution method. Briefly, 50 μL of Mueller Hinton (MH) medium was added to a 96-well plate in advance. Then, 50 μL of AMP solution was added to the first well, and 50 μL was pipetted into the next well after mixing using a row gun, while 50 μL was discarded from the last well. Final concentrations of Brevinin-1BW were 100, 50, 25, 12.5, 6.25, and 3.125 μg/mL. A 50 μL volume of the diluted bacterial solution was added, and the final concentration of the bacterial solution was 1 × 10^6 CFU/mL. This was then placed into a 37 °C incubator for 18 h until the next day to observe the degree of turbidity of the 96-well plate and measure the absorbance of the wells at 600 nm with a multifunctional microplate reader (SpectraMax iD5, Molecular Devices, Sunnyvale, CA, USA). The absence of turbidity and the measured concentration of absorbance being less than the opposing group was taken as the MIC. The positive control used ampicillin at the same final concentration as Brevinin-1BW, the negative control used 50 μL of MH medium mixed with 50 μL of 2 × 10^6 CFU/mL bacterial solution, and the blank contained only 100 μL of MH medium. Three replicate wells were set up for each experiment, and each experiment was repeated three times. The MIC and all concentrations above the MIC of bacterial solution coated on MHA solid medium were placed into 37 °C incubator incubation for 18 h. The lowest concentration resulting in no colony growth was taken as the minimum bactericidal concentration (MBC).

The subject of experiment [1] is S. haemolyticus (CI 1607BLD590). Put plainly: microbe, parasite or virus in culture. Type of experiment: cell-based, Staphylococcus haemolyticus. The note with it: Staphylococcus haemolyticus; S. haemolyticus (CI 1607BLD590), clinical isolate; CLSI two-fold dilution, MH medium, 1 × 10^6 CFU/mL, 37 °C, 18 h, OD600; 9 replicates of 3 independent experiments; read-out: MIC. As to the method:
as §1

The subject of experiment [2] is S. saprophytics (ATCCBAA750). Put plainly: microbe, parasite or virus in culture. Format: cell-based, Staphylococcus saprophyticus. The note with it: Staphylococcus saprophyticus; S. saprophytics (ATCCBAA750); CLSI two-fold dilution, MH medium, 1 × 10^6 CFU/mL, 37 °C, 18 h, OD600; 9 replicates of 3 independent experiments; read-out: MIC. On the procedure: as §1
Experiment [3] has as its system E. hormaechei (ATCC700323). The experiment can be described thus: microbe, parasite or virus in culture. Type of experiment: cell-based, Enterobacter hormaechei. The note with it: Enterobacter hormaechei; E. hormaechei (ATCC700323); CLSI two-fold dilution, MH medium, 1 × 10^6 CFU/mL, 37 °C, 18 h, OD600; 9 replicates of 3 independent experiments; read-out: MIC. On the procedure: as §1

The subject of a further experiment is E. faecalis (ATCC29212). Put plainly: microbe, parasite or virus in culture. Type of experiment: cell-based, Enterococcus faecalis. The following applies: Enterococcus faecalis; E. faecalis (ATCC29212); CLSI two-fold dilution, MH medium, 1 × 10^6 CFU/mL, 37 °C, 18 h, OD600; 9 replicates of 3 independent experiments; read-out: MIC. As to the method:
as §1

Experiment [4] deals with P. aeruginosa (ATCC27853). Put plainly: microbe, parasite or virus in culture. Format: cell-based, Pseudomonas aeruginosa. The following applies: Pseudomonas aeruginosa; P. aeruginosa (ATCC27853); CLSI two-fold dilution, MH medium, 1 × 10^6 CFU/mL, 37 °C, 18 h, OD600; 9 replicates of 3 independent experiments; read-out: MIC. On the procedure: as §1
The test system of experiment [5] is C. koseri (CI 1611SED223). The experiment can be described thus: microbe, parasite or virus in culture. The following applies: Citrobacter koseri; C. koseri (CI 1611SED223), clinical isolate; CLSI two-fold dilution, MH medium, 1 × 10^6 CFU/mL, 37 °C, 18 h, OD600; 9 replicates of 3 independent experiments; read-out: MIC. Format: cell-based, Citrobacter koseri. As to the method: as §1

Experiment [6] concerns S. epidermidis (CI 1607BL1D39). Put plainly: microbe, parasite or virus in culture. Type of experiment: cell-based, Staphylococcus epidermidis. The note with it: Staphylococcus epidermidis; S. epidermidis (CI 1607BL1D39), clinical isolate; CLSI two-fold dilution, MH medium, 1 × 10^6 CFU/mL, 37 °C, 18 h, OD600; 9 replicates of 3 independent experiments; read-out: MIC. On the procedure: as §1

A further experiment has as its system S. aureus (ATCC25923). Put plainly: microbe, parasite or virus in culture. Format: cell-based, Staphylococcus aureus. The note with it: Staphylococcus aureus; S. aureus (ATCC25923); CLSI two-fold dilution, MH medium, 1 × 10^6 CFU/mL, 37 °C, 18 h, OD600; 9 replicates of 3 independent experiments; read-out: MIC. On the procedure:
as §1

The test system of experiment [7] is S. aureus (MDR ATCC29213). The experiment can be described thus: microbe, parasite or virus in culture. Type of experiment: cell-based, Staphylococcus aureus. The note with it: Staphylococcus aureus; S. aureus (MDR ATCC29213); CLSI two-fold dilution, MH medium, 1 × 10^6 CFU/mL, 37 °C, 18 h, OD600; 9 replicates of 3 independent experiments; read-out: MIC. On the procedure: as §1

In the next experiment the test system is E. coli (MDR ATCC35218). The experiment can be described thus: microbe, parasite or virus in culture. The note with it: Escherichia coli; E. coli (MDR ATCC35218); CLSI two-fold dilution, MH medium, 1 × 10^6 CFU/mL, 37 °C, 18 h, OD600; 9 replicates of 3 independent experiments; read-out: MIC. Type of experiment: cell-based, Escherichia coli. As to the method:
as §1

The test system of experiment [8] is K. pneumoniae (ATCC700603). Put plainly: microbe, parasite or virus in culture. Type of experiment: cell-based, Klebsiella pneumoniae. The following applies: Klebsiella pneumoniae; K. pneumoniae (ATCC700603); CLSI two-fold dilution, MH medium, 1 × 10^6 CFU/mL, 37 °C, 18 h, OD600; 9 replicates of 3 independent experiments; read-out: MIC. On the procedure:
as §1

Converted amounts (≈) assume the structure as drawn. Positions of bridges follow the written chain, without caps; N, C: chain ends. No end group written: not given here. Where only a bound is given, the exact number is not on record here.

For the molecule “FLPAVLRVAAKVVPTVFCLISKKC (disulfide 18-24 (inferred)) [Brevinin-1JDc, related Brevinin-1 family AMP from publications]”, the results for the MIC with MRSA/MDR S. aureus and in the experiment on S. aureus were 3 µM and 6 µM, respectively.
For “FLPGVLRLVTKVGPAVVCAITRNC (disulfide 18-24 (inferred)) [Brevinin-1ISa, related Brevinin-1 family AMP from publications]”, the MIC in the experiment with MRSA/MDR S. aureus and with S. aureus was 3.1 µM in each case.
In the case of “FLPAVIRVAANVLPTVFCAISKKC (disulfide 18-24 (inferred)) [Brevinin-1JDa, related Brevinin-1 family AMP from publications]”, the MIC is on record as 13 µM with MRSA/MDR S. aureus and 6 µM in the experiment on S. aureus.
For the molecule “FLGAVLKVAGKLVPAAICKISKKC (disulfide 18-24 (inferred)) [Brevinin-1GHa, related Brevinin-1 family AMP from publications]”, the results for the MIC in the experiment on MRSA/MDR S. aureus, in the experiment on E. faecalis and in the experiment on S. aureus were 4 µM, 8 µM and 2 µM, respectively.
Consider “FLGSIVGALASALPSLISKIRN [Brevinin1TSa, related Brevinin-1 family AMP from publications]”, for which the MIC in the experiment with MRSA/MDR S. aureus is given as 25 µM; with E. faecalis it was 50 µM; with S. aureus it was 25 µM.
For `CC1(C)S[C@@H]2[C@H](NC(=O)[C@H](N)c3ccccc3)C(=O)N2[C@H]1C(=O)O` [Ampicillin, reference compound], the MIC with E. coli (ATCC25922) was 100 µg/mL (≈ 286 µM); in experiment [1], greater than 100 µg/mL; in experiment [2], 3.12 µg/mL (≈ 8.94 µM); in experiment [3], greater than 100 µg/mL; in the experiment with E. faecalis (ATCC29212), 3.12 µg/mL (≈ 8.94 µM); in [4], greater than 100 µg/mL. Also, the MIC in [5] is greater than 100 µg/mL; in experiment [6], 3.12 µg/mL (≈ 8.94 µM); in the experiment with S. aureus (ATCC25923), 3.12 µg/mL (≈ 8.94 µM); in experiment [7], greater than 100 µg/mL; with E. coli (MDR ATCC35218), greater than 100 µg/mL; in experiment [8], greater than 100 µg/mL.
With “FLGALFKVASKLVPAAICSISKKC (disulfide 18-24 (inferred)) [Brevinin-1GHd, related Brevinin-1 family AMP from publications]”, the MIC was 4 µM in the experiment with MRSA/MDR S. aureus and 2 µM in the experiment with S. aureus.
